Assay results taken from ChEMBL document CHEMBL4613299, “Optimization of Indazole-Based GSK-3 Inhibitors with Mitigated hERG Issue and In Vivo Activity in a Mood Disorder Model” (ACS Med Chem Lett, 2020).
Values after ≈ are worked out from the molar mass of the structure shown.

Legend:
[1] = Cmax in plasma of CD1 mouse at 10 mg/kg, ip measured up to 7 hrs by LC-MS/MS analysis; assay type: ADME, organism-based; set-up: dose 10 mg/kg, route intraperitoneal
[2] = Half life in CD1 mouse at 10 mg/kg, ip measured up to 7 hrs by LC-MS/MS analysis; assay type: ADME, organism-based; conditions: in vivo
[3] = Half life in human pooled liver microsomes at 10 uM incubated in shaking water bath measured up to 60 mins in presence of NADPH by HPLC-MS/MS analysis; assay type: ADME, Microsome
[4] = Half life in CD mouse pooled liver microsomes at 10 uM incubated in shaking water bath measured up to 60 mins in presence of NADPH by HPLC-MS/MS analysis; assay type: ADME, Microsome
[5] = AUC (0 to infinity) in CD1 mouse at 10 mg/kg, ip measured up to 7 hrs by LC-MS/MS analysis; assay type: ADME, organism-based; set-up: dose 10 mg/kg, time infinity, route intraperitoneal; conditions: in vivo
[6] = Aqueous solubility of compound in PBS buffer at 200 uM and pH 7.4 incubated for 24 hrs under shaking condition by chromatographic analysis; assay type: physicochemical
[7] = AUC (0 to t) in CD1 mouse at 10 mg/kg, ip measured up to 7 hrs by LC-MS/MS analysis; assay type: ADME, organism-based; set-up: time < 7 hr, dose 10 mg/kg, route intraperitoneal; conditions: in vivo
[8] = Cmax in brain of CD1 mouse at 10 mg/kg, ip measured up to 7 hrs by LC-MS/MS analysis; assay type: ADME, organism-based; set-up: dose 10 mg/kg, route intraperitoneal
[9] = Tmax in CD1 mouse at 10 mg/kg, ip measured up to 7 hrs by LC-MS/MS analysis; assay type: ADME, organism-based; conditions: in vivo

Cmax [1]: 949 ng/mL
half-life [2]: 2 h
half-life at 10 µM [3]: > 1 h
half-life at 10 µM [4]: > 1 h
AUC(0-inf) [5]: 791 ng·h/mL
solubility at 24 h, 200 µM [6]: 200 µM (≈ 73.3 µg/mL)
AUC(0-t) at 7 h [7]: 781 ng·h/mL
Cmax [8]: 21.1 ng/g
Tmax [9]: 0.5 h
SMILES: O=C(NCC1CCOCC1)c1n[nH]c2ccc(-c3cncc(CO)c3)cc12
